Test results reported in ChEMBL document CHEMBL1949662, “JBIR-94 and JBIR-125, antioxidative phenolic compounds from Streptomyces sp. R56-07” (J Nat Prod, 2012).

What follows are compounds tested on Radical scavenging activity (assay: Antioxidant activity assessed as DPPH free radical scavenging activity after 30 mins).
Assay type: functional

IC50 [µM]	Structure (SMILES)
9	Cc1c(C)c2c(c(C)c1O)CC[C@@](C)(CCC[C@H](C)CCC[C@H](C)CCCC(C)C)O2 [ALPHA-TOCOPHEROL]
35.1	CC(=O)NCCCCN(CCCNC(=O)CCc1ccc(O)cc1)C(=O)CCc1ccc(O)cc1
11.4	COc1cc(CCC(=O)NCCCCNC(=O)CCc2ccc(O)c(OC)c2)ccc1O
